Measurements reported in patent publication US20050238635A1, “Use of hyrogen peroxide producting enzyme for treatment of otitis media” (priority 2002, published 2005).

Legend:
[1] = test system: M catarrhalis (Mcat-res); assay: broth test of alpha 4 co-cultured with resistant M catarrhalis (Mcat-res), with amitrole; assay type: cell-based; conditions: amitrole 50 mM in broth, 7 hours, 37° C.
Method: Amitrole is an irreversible catalase inhibitor [12]. If an increased or more efficient catalase production was involved in the development of resistance of M cararrhalis to an isolate of AHS. This resistance would be reverted by addition of amitrole. In broth tests with alpha 4 together with M catarrhalis in 5 ml broth, 50 mM (0.1 ml) of amitrole (3-amino-1,2,4-triazole), was added into the solution and incubated for 7 hours at 37° C. in air with intermittent shaking. The isolate of M catarrhalis (Mcat-res) had developed resistance against alpha 4 after co-culturing in broth. CFU counts were calculated at start and after 7 hours of incubation. Alpha 4 with M catarrhalis in broth without amitrole, broth and M catarrhalis alone and M catarrhalis alone with amitrole in broth served as controls.

[2] = test system: H influenzae; assay: filtrate test: inhibitory effect of cell-free PBS filtrate of AHS on growth (CFU) of H influenzae; assay type: cell-based
Method: Numbers of colony forming units (CFU) were counted after serial dilutions in PBS and growth over night at 37° C. in air. Identification of the bacteria was based on different morphology of the isolates growing on the agar plates. AHS and M catarrhalis were grown on agar plates with 7% human blood and McLeod plates were used when H influenzae was assayed.
To achieve a filtrate with inhibitory activity, about 10^6 CFU of AHS were inoculated in 4 vials, each containing 15 ml of broth and incubated for 12 hours. The suspension was then centrifuged at 3000 rpm for 15 min and the supernatant was thrown away. The bacteria were transferred into one vial and two ml of phosphate buffered saline (PBS) was added and incubated at 37° C. for 5 hours. The suspension was then passed through a 0.2 μm sterile filter to remove the bacteria. Otitis media pathogens (0.1 ml) were then added to the filtrate (1 ml) and incubated at 37° C. The controls were incubated in fresh PBS.
Catalase is a specific enzyme catalyzing the conversion of H2O2 into O2 and H2O. This reaction proceeds rapidly. Purified catalase from human erythrocytes (>30.000U/mg) was used in the assays. The assays were performed as described above in the filtrate tests, with the exception that catalase, 1000 U/ml (=0.01 ml), was added to the vials with filtrate and PBS. […]

[3] = trypsin tested together with hydrogen peroxide for catalase effect; assay type: biochemical

In the case of `Nc1nc[nH]n1` [amitrole, 3-amino-1,2,4-triazole], the “sensitivity of resistant M catarrhalis to inhibition of alpha 4 when amitrole added” value [1] is reported as “became sensitive”.

For Trypsin, the “reversal of the inhibitory effect of the cell-free filtrate of alpha 89” value ([2]; trypsin 2.5 mg/ml, filtrate incubated with H influenzae) was “only slightly reverse” and the catalase effect [3] was “no catalase effect”.

B1: Catalase: Purified catalase from human erythrocytes; enzyme catalyzing the conversion of H2O2 into O2 and H2O (protein, UniProt P04040 2-527, looked up)
Catalase: ADSRDPASDQMQHWKEQRAAQKADVLTTGAGNPVGDKLNVITVGPRGPLLVQDVVFTDEMAHFDRERIPERVVHAKGAGAFGYFEVTHDITKYSKAKVFEHIGKKTPIAVRFSTVAGESGSADTVRDPRGFAVKFYTEDGNWDLVGNNTPIFFIRDPILFPSFIHSQKRNPQTHLKDPDMVWDFWSLRPESLHQVSFLFSDRGIPDGHRHMNGYGSHTFKLVNANGEAVYCKFHYKTDQGIKNLSVEDAARLSQEDPDYGIRDLFNAIATGKYPSWTFYIQVMTFNQAETFPFNPFDLTKVWPHKDYPLIPVGKLVLNRNPVNYFAEVEQIAFDPSNMPPGIEASPDKMLQGRLFAYPDTHRHRLGPNYLHIPVNCPYRARVANYQRDGPMCMQDNQGGAPNYYPNSFGAPEQQPSALEHSIQYSGEVRRFNTANDDNVTQVRAFYVNVLNEEQRKRLCENIAGHLKDAQIFIQKKAVKNFTEVHPDYGSHIQALLDKYNAEKPKNAIHTFVQSGSHLAAREKANL
For B1, the “reversal of the inhibitory effect of the cell-free filtrate of AHS” value ([2]; catalase 1000U/ml, filtrate of alpha 89 incubated with H influenzae) was “completely reverse”.
